Assays:
[1] = Intrinsic clearance in human liver microsomes assessed as glucuronidation in absence of NADPH and presence of microsomal activator Brij58 and UDPGA
[2] = Drug metabolism of the compound in human liver microsomes assessed as glucuronidation in absence of NADPH and presence of microsomal activator Brij58 and UDPGA
[3] = target: Beta-1 adrenergic receptor (Homo sapiens, UniProt P08588); test: Agonist activity at beta-1 adrenoceptor (unknown origin)
[4] = target: Muscarinic acetylcholine receptor M3 (Homo sapiens, UniProt P20309); test: Displacement of [3H]-N-methyl scopolamine from human cloned muscarinic M3 receptor
Chain of Muscarinic acetylcholine receptor M3 (P20309 whole entry): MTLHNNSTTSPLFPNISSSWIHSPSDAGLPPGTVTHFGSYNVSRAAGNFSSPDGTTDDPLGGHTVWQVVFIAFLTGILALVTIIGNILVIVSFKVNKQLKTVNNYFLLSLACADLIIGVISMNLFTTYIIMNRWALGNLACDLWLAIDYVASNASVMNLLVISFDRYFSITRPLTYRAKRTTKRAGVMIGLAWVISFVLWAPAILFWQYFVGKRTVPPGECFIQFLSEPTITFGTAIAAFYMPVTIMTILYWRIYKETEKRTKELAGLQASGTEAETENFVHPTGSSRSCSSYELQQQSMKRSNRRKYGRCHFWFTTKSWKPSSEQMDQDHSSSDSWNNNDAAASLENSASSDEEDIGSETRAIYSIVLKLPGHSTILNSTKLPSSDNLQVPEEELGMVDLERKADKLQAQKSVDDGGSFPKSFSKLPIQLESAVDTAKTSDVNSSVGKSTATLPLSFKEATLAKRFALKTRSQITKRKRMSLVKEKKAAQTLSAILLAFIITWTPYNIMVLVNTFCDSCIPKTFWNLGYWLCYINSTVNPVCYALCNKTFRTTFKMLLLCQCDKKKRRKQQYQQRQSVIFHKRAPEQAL

[5] = target: Beta-2 adrenergic receptor (Homo sapiens, UniProt P07550); test: Agonist activity at human beta-2 adrenoceptor expressed in CHO cells assessed as stimulation of intracellular cAMP production; type: functional, cell-based
Chain of Beta-2 adrenergic receptor (P07550 whole entry): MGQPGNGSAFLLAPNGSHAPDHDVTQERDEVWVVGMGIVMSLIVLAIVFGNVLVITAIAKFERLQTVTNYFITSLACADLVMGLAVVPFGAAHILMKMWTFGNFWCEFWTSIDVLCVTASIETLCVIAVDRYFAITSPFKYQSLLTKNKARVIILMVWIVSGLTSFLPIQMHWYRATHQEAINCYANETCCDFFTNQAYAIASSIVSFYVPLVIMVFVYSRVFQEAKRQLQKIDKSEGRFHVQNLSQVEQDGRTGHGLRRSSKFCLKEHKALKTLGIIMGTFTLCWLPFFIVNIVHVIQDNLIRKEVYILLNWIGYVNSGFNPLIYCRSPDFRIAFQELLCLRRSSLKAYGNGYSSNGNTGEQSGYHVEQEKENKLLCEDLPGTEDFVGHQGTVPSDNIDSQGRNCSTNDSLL

Chain of Beta-1 adrenergic receptor (P08588 whole entry): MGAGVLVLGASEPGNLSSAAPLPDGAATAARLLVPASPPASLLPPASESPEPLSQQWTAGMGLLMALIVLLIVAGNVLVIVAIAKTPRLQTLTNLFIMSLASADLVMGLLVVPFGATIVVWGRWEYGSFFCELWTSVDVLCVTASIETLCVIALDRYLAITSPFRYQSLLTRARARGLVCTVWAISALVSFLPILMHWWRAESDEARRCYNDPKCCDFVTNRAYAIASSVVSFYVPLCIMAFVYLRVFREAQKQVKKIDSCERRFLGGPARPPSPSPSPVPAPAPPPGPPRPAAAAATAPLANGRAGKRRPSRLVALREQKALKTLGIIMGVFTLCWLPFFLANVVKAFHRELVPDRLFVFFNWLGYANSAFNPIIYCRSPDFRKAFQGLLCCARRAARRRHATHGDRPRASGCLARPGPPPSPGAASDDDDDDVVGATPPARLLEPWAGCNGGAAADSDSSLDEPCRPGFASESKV

microsomal CLint [1] [µL/min/mg]	microsomal CLint [2] [µL/min/mg]	EC50 [3] [nM]	Ki [4] [nM]	EC50 [5] [nM]	SMILES
28	4	> 10000	76	65	CS(=O)(=O)Nc1cc([C@@H](O)CNCCCCCCCCCN2CCC(OC(=O)Nc3ccccc3-c3cc(O)cc(F)c3)CC2)ccc1O
13	90	> 10000	8.3	22	CS(=O)(=O)Nc1cc([C@@H](O)CNCCCCCCCCCN2CCC(OC(=O)Nc3ccccc3-c3cc(F)c(O)cc3F)CC2)ccc1O
8.8	< 2	> 10000	26	–	CS(=O)(=O)Nc1cc([C@@H](O)CNCCCCCCCCCN2CCC(OC(=O)Nc3ccccc3-c3ccc(F)cc3O)CC2)ccc1O
22	19	> 10000	4.8	–	Cc1ccc(NC(=O)OC2CCN(CCCCCCCCCNC[C@H](O)c3ccc(O)c(NS(C)(=O)=O)c3)CC2)c(-c2ccc(O)c(Cl)c2)c1
79	32	> 10000	38	36	Cc1cc(C)c(NC(=O)OC2CCN(CCCCCCCCCNC[C@H](O)c3ccc(O)c(NS(C)(=O)=O)c3)CC2)c(-c2ccc(O)c(Cl)c2)c1
–	–	> 10000	–	–	O=C(Nc1ccccc1-c1ccccc1)OC1CCN(CCCCCCCCCNC[C@H](O)c2ccc(O)c3[nH]c(=O)ccc23)CC1
25	17	> 10000	1.1	23	CS(=O)(=O)Nc1cc([C@@H](O)CNCCCCCCCCCN2CCC(OC(=O)Nc3ccc(F)cc3-c3ccc(O)c(Cl)c3)CC2)ccc1O
34	22	> 10000	2	21	CS(=O)(=O)Nc1cc([C@@H](O)CNCCCCCCCCCCN2CCC(OC(=O)Nc3ccccc3-c3ccc(O)c(Cl)c3)CC2)ccc1O
45	16	> 10000	4.4	195	CS(=O)(=O)Nc1cc([C@@H](O)CNCCCCCCCCCCCN2CCC(OC(=O)Nc3ccccc3-c3ccc(O)c(Cl)c3)CC2)ccc1O
20	< 3.5	> 10000	22	102	CS(=O)(=O)Nc1cc([C@@H](O)CNCCCCCCCCCN2CCC(OC(=O)Nc3ccccc3-c3cc(F)cc(F)c3O)CC2)ccc1O
20	4	> 10000	2.2	26	CS(=O)(=O)Nc1cc([C@@H](O)CNCCCCCCCCCN2CCC(OC(=O)Nc3ccccc3-c3ccc(O)cc3)CC2)ccc1O
17	< 2	> 10000	18	90	CS(=O)(=O)Nc1cc([C@@H](O)CNCCCCCCCCCN2CCC(OC(=O)Nc3ccccc3-c3ccccc3O)CC2)ccc1O
74	48	> 10000	36	–	CS(=O)(=O)Nc1cc([C@@H](O)CNCCc2ccc(OCCN3CCC(OC(=O)Nc4ccccc4-c4ccc(O)c(Cl)c4)CC3)cc2)ccc1O

SMILES	microsomal CLint [1] [µL/min/mg]	microsomal CLint [2] [µL/min/mg]	EC50 [3] [nM]	Ki [4] [nM]	EC50 [5] [nM]
CS(=O)(=O)Nc1cc([C@@H](O)CNCCCCCCCCCN2C3CCC2CC(OC(=O)Nc2ccccc2-c2ccc(O)c(Cl)c2)C3)ccc1O (stereo partly drawn)	8	7.8	> 10000	8.9	23

From ChEMBL document CHEMBL3217601, “Optimized glucuronidation of dual pharmacology -2 agonists/M3 antagonists for the treatment of COPD” (Medchemcomm, 2011)
